# Test results taken from patent publication US20110130380A1, “Heteroaryl Kinase Inhibitors” (priority 2009, published 2011).
# Biological target: Cdk9/cyclinT1 (Homo sapiens, UniProt P50750)
# Experiment: Cdk9/cyclinT1 IMAP Protocol (fluorescence polarization kinase assay)
# Conditions: Cdk9_cyclinT1_IC50, Table V; generated using one of the two Cdk9/cyclinT1 assays (IMAP or Alpha Screen), not stated which; ATP 6 uM
# Sequence of Cdk9/cyclinT1 (P50750 whole entry): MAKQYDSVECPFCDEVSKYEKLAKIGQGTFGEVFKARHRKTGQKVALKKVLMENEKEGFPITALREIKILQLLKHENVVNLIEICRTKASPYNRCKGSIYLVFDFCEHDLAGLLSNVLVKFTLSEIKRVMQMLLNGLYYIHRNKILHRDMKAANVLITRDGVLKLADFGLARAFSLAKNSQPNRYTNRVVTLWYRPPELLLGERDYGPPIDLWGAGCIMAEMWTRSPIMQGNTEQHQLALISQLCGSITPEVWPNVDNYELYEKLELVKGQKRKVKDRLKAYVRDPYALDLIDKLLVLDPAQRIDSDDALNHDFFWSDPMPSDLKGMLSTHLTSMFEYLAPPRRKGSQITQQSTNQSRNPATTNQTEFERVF
# Sequence of Cdk9/cyclinT1 (O60563 whole entry partner): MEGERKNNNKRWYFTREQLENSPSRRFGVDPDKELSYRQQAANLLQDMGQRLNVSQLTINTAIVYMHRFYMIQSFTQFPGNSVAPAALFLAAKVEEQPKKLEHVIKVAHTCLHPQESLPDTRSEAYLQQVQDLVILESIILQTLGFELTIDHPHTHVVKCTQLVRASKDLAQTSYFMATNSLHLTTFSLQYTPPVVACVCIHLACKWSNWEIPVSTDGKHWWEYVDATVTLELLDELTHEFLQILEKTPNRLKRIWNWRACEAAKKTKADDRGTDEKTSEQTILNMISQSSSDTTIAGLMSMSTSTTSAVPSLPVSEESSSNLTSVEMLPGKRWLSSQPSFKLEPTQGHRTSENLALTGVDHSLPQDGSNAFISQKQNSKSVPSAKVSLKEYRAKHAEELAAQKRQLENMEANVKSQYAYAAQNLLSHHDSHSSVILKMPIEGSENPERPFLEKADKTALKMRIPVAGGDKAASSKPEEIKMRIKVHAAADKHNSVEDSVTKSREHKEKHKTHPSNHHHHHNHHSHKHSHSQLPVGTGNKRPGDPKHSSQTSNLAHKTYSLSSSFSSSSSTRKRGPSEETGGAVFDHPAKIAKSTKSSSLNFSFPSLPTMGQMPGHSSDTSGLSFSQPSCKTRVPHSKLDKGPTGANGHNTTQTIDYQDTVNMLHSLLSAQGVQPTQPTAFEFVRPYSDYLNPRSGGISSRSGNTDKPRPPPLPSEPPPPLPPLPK
row,Structure (SMILES),IC50
1,"C[C@H](Nc1cccc(-c2cc(NC(=O)[C@@H]3CCCNC3)ncc2Cl)n1)C1CCCCC1 [Example 77, (R)-Piperidine-3-carboxylic acid [5′-chloro-6-((S)-1-cyclohexyl-ethylamino)-[2,4′]bipyridinyl-2′-yl]-amide]",8 nM
2,"O=C(Nc1cc(-c2cccc(NCc3cc(F)cc(F)c3)n2)c(Cl)cn1)[C@@H]1CCCNC1 [Example 80, (R)-Piperidine-3-carboxylic acid [5′-chloro-6-(3,5-difluoro-benzylamino)-[2,4′]bipyridinyl-2′-yl]-amide]",< 8 nM
3,"CS(=O)(=O)N1CCC[C@H](C(=O)Nc2cc(-c3cccc(NCC4CCCOC4)n3)c(Cl)cn2)C1 (stereo partly drawn) [Example 81, (S)-1-Methanesulfonyl-piperidine-3-carboxylic acid {5′-chloro-6-[(tetrahydro-pyran-3-ylmethyl)-amino]-[2,4′]bipyridinyl-2′-yl}-amide]",< 8 nM
4,"CC(=O)N1CCC[C@@H](C(=O)Nc2cc(-c3cccc(NCC4CCOCC4)n3)c(Cl)cn2)C1 [Example 82, (R)-1-acetyl-piperidine-3-carboxylic acid {5′-chloro-6-[(tetrahydro-pyran-4-ylmethyl)-amino]-[2,4′]bipyridinyl-2′-yl}-amide]",631 nM
5,"CS(=O)(=O)N1CCC[C@@H](C(=O)Nc2cc(-c3cccc(NCC4CCOCC4)n3)c(Cl)cn2)C1 [Example 83, (R)-1-Methanesulfonyl-piperidine-3-carboxylic acid {5′-chloro-6-[(tetrahydro-pyran-4-ylmethyl)-amino]-[2,4′]bipyridinyl-2′-yl}-amide]",482 nM
6,"COC(=O)N1CCC[C@@H](C(=O)Nc2cc(-c3cccc(NCC4CCOCC4)n3)c(Cl)cn2)C1 [Example 84, (R)-3-{5′-Chloro-6-[(tetrahydro-pyran-4-ylmethyl)-amino]-[2,4′]bipyridinyl-2′-ylcarbamoyl}-piperidine-1-carboxylic acid methyl ester]",419 nM
7,"O=C(Nc1cc(-c2cccc(NCC3CCOCC3)n2)c(Cl)cn1)[C@H]1CNC[C@H]1F [Example 85, (3R,4S)-4-Fluoro-pyrrolidine-3-carboxylic acid {5′-chloro-6-[(tetrahydro-pyran-4-ylmethyl)-amino]-[2,4′]bipyridinyl-2′-yl}-amide]",16 nM
8,"CC(C)C(=O)Nc1cc(-c2nc(NCC3CCOCC3)ccc2Cl)c(Cl)cn1 [Example 86, N-{3,5′-Dichloro-6-[(tetrahydro-pyran-4-ylmethyl)-amino]-[2,4′]bipyridinyl-2′-yl}-isobutyramide]",< 8 nM
9,"O=C(Nc1cc(-c2nc(NCC3CCOCC3)ccc2Cl)c(Cl)cn1)C1CNCCO1 (stereo not drawn) [Example 87, Morpholine-2-carboxylic acid {3,5′-dichloro-6-[(tetrahydro-pyran-4-ylmethyl)-amino]-[2,4′]bipyridinyl-2′-yl}-amide]",18 nM
10,"O=C(Nc1cc(-c2nc(NCC3CCOCC3)ccc2Cl)c(Cl)cn1)[C@@H]1CCNC1 [Example 88, (R)-Pyrrolidine-3-carboxylic acid {3,5′-dichloro-6-[(tetrahydro-pyran-4-ylmethyl)-amino]-[2,4′]bipyridinyl-2′-yl}-amide]",< 8 nM
11,"CC(=O)N1CCC[C@H](C(=O)Nc2cc(-c3cccc(NCC4CCOCC4)n3)c(Cl)cn2)C1 [Example 89, (S)-1-Acetyl-piperidine-3-carboxylic acid {5′-chloro-6-[(tetrahydro-pyran-4-ylmethyl)-amino]-[2,4′]bipyridinyl-2′-yl}-amide]",< 8 nM
12,"COC(=O)N1CCC[C@H](C(=O)Nc2cc(-c3cccc(NCC4CCOCC4)n3)c(Cl)cn2)C1 [Example 90, (S)-3-{5′-Chloro-6-[(tetrahydro-pyran-4-ylmethyl)-amino]-[2,4′]bipyridinyl-2′-ylcarbamoyl}-piperidine-1-carboxylic acid methyl ester]",8 nM
13,"CS(=O)(=O)N1CCC[C@H](C(=O)Nc2cc(-c3cccc(NCC4CCOCC4)n3)c(Cl)cn2)C1 [Example 91, (S)-1-Methanesulfonyl-piperidine-3-carboxylic acid {5′-chloro-6-[(tetrahydro-pyran-4-ylmethyl)-amino]-[2,4′]bipyridinyl-2′-yl}-amide]",< 8 nM
14,"CCS(=O)(=O)N1CCC[C@H](C(=O)Nc2cc(-c3cccc(NCC4CCOCC4)n3)c(Cl)cn2)C1 [Example 92, (S)-1-Ethanesulfonyl-piperidine-3-carboxylic acid {5′-chloro-6-[(tetrahydro-pyran-4-ylmethyl)-amino]-[2,4′]bipyridinyl-2′-yl}-amide]",< 8 nM
15,"O=C(Nc1cc(-c2cccc(NCC3CCOCC3)n2)c(Cl)cn1)[C@H]1CCCN(S(=O)(=O)C2CC2)C1 [Example 93, (S)-1-Cyclopropanesulfonyl-piperidine-3-carboxylic acid {5′-chloro-6-[(tetrahydro-pyran-4-ylmethyl)-amino]-[2,4′]bipyridinyl-2′-yl}-amide]",< 8 nM
16,"CC1(C)CC(CNc2cccc(-c3cc(NC(=O)[C@@H]4CCCNC4)ncc3Cl)n2)CCO1 (stereo partly drawn) [Example 94, (R)-Piperidine-3-carboxylic acid {5′-chloro-6-[(2,2-dimethyl-tetrahydro-pyran-4-ylmethyl)-amino]-[2,4′]bipyridinyl-2′-yl}-amide]",< 8 nM
17,"O=C(Nc1cc(-c2cccc(NCC3CCOCC3)n2)c(Cl)cn1)C1(F)CCCNC1 (stereo not drawn) [Example 95, 3-Fluoro-piperidine-3-carboxylic acid {5′-chloro-6-[(tetrahydro-pyran-4-ylmethyl)-amino]-[2,4′]bipyridinyl-2′-yl}-amide]",167 nM
18,"O=C(Nc1cc(-c2cccc(NCC3CCOCC3)n2)c(Cl)cn1)[C@H]1CNCCO1 [Example 96, (R)-Morpholine-2-carboxylic acid {5′-chloro-6-[(tetrahydro-pyran-4-ylmethyl)-amino]-[2,4′]bipyridinyl-2′-yl}-amide]",5 nM
19,"O=C(Nc1cc(-c2nc(NCC3CCOCC3)ccc2Cl)c(Cl)cn1)C1CCOCC1 [Example 97, Tetrahydro-pyran-4-carboxylic acid {3,5′-dichloro-6-[(tetrahydro-pyran-4-ylmethyl)-amino]-[2,4′]bipyridinyl-2′-yl}-amide]",10 nM
20,"O=C(Nc1cc(-c2nc(NCC3CCOCC3)ccc2Cl)c(Cl)cn1)[C@H]1CCCNC1 [Example 98, (S)-Piperidine-3-carboxylic acid {3,5′-dichloro-6-[(tetrahydro-pyran-4-ylmethyl)-amino]-[2,4′]bipyridinyl-2′-yl}-amide]",14 nM
21,"N[C@@H]1CC[C@H](C(=O)Nc2cc(-c3nc(NCC4CCOCC4)ccc3Cl)c(Cl)cn2)C1 [Example 99, (1S,3R)-3-Amino-cyclopentanecarboxylic acid {3,5′-dichloro-6-[(tetrahydro-pyran-4-ylmethyl)-amino]-[2,4′]bipyridinyl-2′-yl}-amide]",< 8 nM
22,"N[C@H]1CC[C@@H](C(=O)Nc2cc(-c3nc(NCC4CCOCC4)ccc3Cl)c(Cl)cn2)C1 [Example 100, (1R,3S)-3-Amino-cyclopentanecarboxylic acid {3,5′-dichloro-6-[(tetrahydro-pyran-4-ylmethyl)-amino]-[2,4′]bipyridinyl-2′-yl}-amide]",< 8 nM
23,"O=C(Nc1cc(-c2nc(NCC3CCOCC3)ccc2Cl)c(Cl)cn1)[C@H]1CNCCO1 [Example 101, (R)-Morpholine-2-carboxylic acid {3,5′-dichloro-6-[(tetrahydro-pyran-4-ylmethyl)-amino]-[2,4′]bipyridinyl-2′-yl}-amide]",8 nM
24,"O=C(Nc1cc(-c2nc(NCC3CCOCC3)ccc2Cl)c(Cl)cn1)[C@H]1CNC[C@H]1F [Example 102, (3R,4S)-4-Fluoro-pyrrolidine-3-carboxylic acid {3,5′-dichloro-6-[(tetrahydro-pyran-4-ylmethyl)-amino]-[2,4′]bipyridinyl-2′-yl}-amide]",9 nM
25,"O=C(COc1ccc(Cl)cn1)Nc1cc(-c2cccc(NCC3CCOCC3)n2)c(Cl)cn1 [Example 103, 2-(5-Chloro-pyridin-2-yloxy)-N-{5′-chloro-6-[(tetrahydro-pyran-4-ylmethyl)-amino]-[2,4′]bipyridinyl-2′-yl}-acetamide]",27 nM
26,"COC(=O)N1CCC[C@H](C(=O)Nc2cc(-c3nc(NCC4CCOCC4)ccc3Cl)c(Cl)cn2)C1 [Example 105, (S)-3-{3,5′-Dichloro-6-[(tetrahydro-pyran-4-ylmethyl)-amino]-[2,4′]bipyridinyl-2′-ylcarbamoyl}-piperidine-1-carboxylic acid methyl ester]",< 8 nM
27,"COC(=O)N[C@@H]1CC[C@H](C(=O)Nc2cc(-c3nc(NCC4CCOCC4)ccc3Cl)c(Cl)cn2)C1 [Example 106, ((lR,3S)-3-{3,5′-Dichloro-6-[(tetrahydro-pyran-4-ylmethyl)-amino]-[2,4′]bipyridinyl-2′-ylcarbamoyl}-cyclopentyl)-carbamic acid methyl ester]",< 8 nM
28,"COC(=O)N[C@H]1CC[C@@H](C(=O)Nc2cc(-c3nc(NCC4CCOCC4)ccc3Cl)c(Cl)cn2)C1 [Example 107, ((lS,3R)-3-{3,5′-Dichloro-6-[(tetrahydro-pyran-4-ylmethyl)-amino]-[2,4′]bipyridinyl-2′-ylcarbamoyl}-cyclopentyl)-carbamic acid methyl ester]",< 8 nM
29,"CS(=O)(=O)N1CCC[C@H](C(=O)Nc2cc(-c3nc(NCC4CCOCC4)ccc3Cl)c(Cl)cn2)C1 [Example 108, (S)-1-Methanesulfonyl-piperidine-3-carboxylic acid {3,5′-dichloro-6-[(tetrahydro-pyran-4-ylmethyl)-amino]-[2,4′]bipyridinyl-2′-yl}-amide]",< 8 nM
30,"CS(=O)(=O)N[C@@H]1CC[C@H](C(=O)Nc2cc(-c3nc(NCC4CCOCC4)ccc3Cl)c(Cl)cn2)C1 [Example 109, (1S,3R)-3-Methanesulfonylamino-cyclopentanecarboxylic acid {3,5′-dichloro-6-[(tetrahydro-pyran-4-ylmethyl)-amino]-[2,4′]bipyridinyl-2′-yl}-amide]",< 8 nM
